Consider one compound from article PMC6050662, “Lycorine inhibits glioblastoma multiforme growth through EGFR suppression” (Journal of Experimental & Clinical Cancer Research : CR, 2018).

The target of this assay is T1, EGFR (Homo sapiens, UniProt P00533).
T1 construct: GST-tagged EGFR (696–1022), intracellular kinase domain
In words: SPR (Biacore T200, GST-EGFR captured by anti-GST on CM5 chip); also kinase assay (Kinase-Glo) IC50 about […]. Format: binding. In general terms: In SPR one partner is held on a chip, and binding of the other changes the refractive index at the surface.

T1 sequence (P00533 696-1022): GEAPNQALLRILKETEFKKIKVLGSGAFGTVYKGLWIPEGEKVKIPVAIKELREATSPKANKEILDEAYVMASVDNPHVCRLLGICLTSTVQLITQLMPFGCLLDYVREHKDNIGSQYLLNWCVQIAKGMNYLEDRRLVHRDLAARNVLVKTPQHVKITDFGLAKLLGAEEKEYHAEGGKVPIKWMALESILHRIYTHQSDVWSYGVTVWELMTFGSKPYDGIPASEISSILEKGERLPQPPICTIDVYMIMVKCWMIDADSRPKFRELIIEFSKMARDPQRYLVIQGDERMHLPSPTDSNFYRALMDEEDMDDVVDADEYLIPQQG

In general, Kd refers to the equilibrium constant for the complex coming apart. A lower Kd goes with tighter binding. `O[C@H]1[C@H]2c3cc4c(cc3CN3CCC(=C[C@@H]1O)[C@H]23)OCO4` [Lycorine] returned a Kd of approximately 3.6 µM.
